“And” between values parts separate entries of the source, which are not always exact repeats. Identical values can stand only once.
Columns and labels:
[1] = tested on: transferred CD45.1+ OT-II Th9 cells; assay: Flow cytometry of transferred CD45.1+ OT-II Th9 cells in spleen, LN, tumor (Figure 2B-C, S1C-E); type: in vivo, mouse; details: for Frequencies of transferred CD45.1⁺ OT-II Th9 cells among CD45⁺ cells in LN: Supplemental Figure 1D left; for number of transferred CD45.1⁺ OT-II Th9 cells among CD45⁺ cells in LN: Supplemental Figure 1D right; for CD45.1+ gate number: representative flow plot
Protocol: C57BL/6 mice were subcutaneously injected with 5 × 10^5 B16-OVA melanoma cells. Five days after tumor implantation, mice received an intravenous infusion of 2 × 10^6 in vitro–differentiated Th9 cells (cultured for 5 days), which were derived from OT-II CD45.1 donor mice, accompanied by 4 × 10^5 OVA peptide–pulsed DCs via the tail vein. To enhance T cell engraftment and facilitate lymphodepletion, a single intraperitoneal injection of cyclophosphamide (200 mg/kg, Sigma, catalog C0768) was administered 1 day prior to T cell transfer. Mice were euthanized at designated time points for the collection and analysis of spleens, tumor-draining lymph nodes, and tumor tissues.
Details regarding staining panels (human and mouse), reagents (including clones and catalog numbers), acquisition settings, compensation/controls, and analysis procedures are provided in Supplemental Methods.
BioLegend, Cat. No. 422301 or Mouse TruStain FcX™, BioLegend, Cat. No. 101319) for 10 minutes at 4°C. For surface marker detection, cells were stained with fluorochrome-conjugated monoclonal antibodies in 96-well V-bottom plates and incubated on ice for 30 minutes. After staining, cells were washed twice and resuspended in FACS buffer for analysis.
Prior to intracellular cytokine staining, cells were restimulated for 4 hours with PMA (Absin, Cat. No. abs9107), ionomycin (Sigma-Aldrich, Cat. No. I0634), and brefeldin A (MedChemExpress, Cat. No. HY-16592). For intracellular cytokine staining, cells were first surface-stained as described above, then fixed and permeabilized using the BD Cytofix/Cytoperm™ kit (BD Biosciences, Cat. No. 554714) according to the manufacturer ’s protocol. Intracellular proteins were stained with directly conjugated antibodies targeting IL-9, IL-17a, IL-4, IFN-γ, TNF-α, FOXP3, p-ZAP70, Perforin, and […]
Antibodies used for mouse samples included those against IL-9 (PE, clone RM9A4, Biolegend, Cat. No. 514104), IFN-γ (PE, clone XMG1.2, Biolegend, Cat. No.
Cat. No. 103138), CD4 (APC/Cy7, clone E-AB-F1353UJ, Elabscience, Cat. No.
AF18028), CD8α (PerCP/Cy5.5, clone E-AB-F1104UJ, Elabscience, Cat. No. […]
clone E-AB-F1187UH, Elabscience, Cat. No. AF19854), TNF-α (BV421, clone MP6-XT22, Biolegend, Cat. No. 506328), FOXP3 (PE, clone FJK-16s, eBioscience, Cat. No.
Perforin (APC, clone S16009A, Biolegend, Cat. No. 154303) and Granzyme B (APC, […]
clone QA16A02, Biolegend, Cat. No. 372203). […]
Figure S1. EpA enhances immune responses. […]
Representative flow-cytometric plots showing transferred CD45.1⁺ OT-II Th9 cells in spleens (C), tumor-draining lymph nodes (LNs) (D), and tumors (E); frequencies Figure S1 and absolute numbers of CD45.1⁺ OT-II Th9 cells in LNs are quantified in (D). (F– […]
Statistical analysis was performed using two-way ANOVA with Tukey’s post hoc test (A), one-way ANOVA with Tukey’s post hoc test (B) or two-tailed unpaired Student’s t-test (D and G–M). ns, not significant. *p < 0.05, **p < 0.01, ****p < 0.0001.
(also on this page, place not known: Mouse weight (g) CtrlEpA CtrlEpA CtrlEpA0 I CD45.1+ T cells (%) CtrlEpA CD4+ T cells (%) CtrlEpA CtrlEpA CtrlEpA FSC CD8 CD8 FSC FSC FSC BNumber of CD45.1+ T cells (×103 per mgĎ Number of CD4+ T cells (×104 per mgĎ DC (%)NK cells (%) NK cells (%) DC (%) Number of DC (×103 per mg) Number of NK cells (×105) Number of NK cells (×103 per mg) Number of DC (×105) FSC FSC FSC CD8 CtrlEpA CtrlEpA CtrlEpA CD8+ T cells (%) Number of CD8+ T cells (×104 per mgĎ nsns ns nsns ns 40 IL-6 (pg/ml)) […]

Th9 cells [2] = assay: Seahorse oxygen consumption rate, mitochondrial stress test (Figure 4F-H); type: cell-based, mouse
Protocol: After stimulation, cells were washed, resuspended in Seahorse XF assay medium (Agilent Technologies; pH 7.40–7.45, catalog 103576-100) and seeded at 5 × 10^5 cells per well in Seahorse XF96 microplates. Plates were centrifuged at 400 × g for 5 minutes to promote adherence and monolayer formation, and all conditions were tested in quadruplicate.
Oxidative phosphorylation was assessed on the same instrument using the XFe96 Mitochondrial Stress Test Kit (Agilent Technologies, catalog 103015-100). Oligomycin (1.5 μM), FCCP (0.5 μM), and rotenone plus antimycin A (0.5 μM each) were injected sequentially to measure OCR as a proxy for oxidative phosphorylation. The mitochondrial stress response was derived from OCR values obtained before and after each injection.

[3] = tested on: mitochondria of Th9 cells; assay: Transmission electron microscopy of mitochondrial number and diameter (Figure 4J-K); type: cell-based, mouse
Protocol: Mitochondrial mass and membrane potential were assessed using MitoTracker™ Deep Red FM (Thermo Fisher Scientific, catalog M22426) and TMRM (tetramethylrhodamine methyl ester; Macklin, catalog T868125), respectively, following the manufacturers’ protocols. Cells were incubated with the respective dyes, washed, and subjected to flow cytometry or fluorescence microscopy analysis. For ultrastructural assessment, mitochondrial number and diameter were quantified from high-resolution transmission electron microscopy (TEM) images using ImageJ software.

Th9 cells [4] = assay: Intracellular ATP assay, luminescence (Figure 4L); type: cell-based, mouse; details: result in words
Protocol: Intracellular adenosine triphosphate (ATP) levels were measured using a chemiluminescent ATP assay kit (Beyotime, catalog S0026) according to the manufacturer’s protocol. Briefly, cells were lysed and incubated with the luciferase-based detection reagent, and the resulting luminescent signal was detected using an Infinite M200 multimode microplate reader (TECAN). ATP concentrations were calculated based on a standard curve and normalized to cell number or protein content where applicable.

[5] = spleens, individual mice, n = 4

For anteiso-C15 Leu7 surfactin [EpA], the Frequencies of transferred CD45.1⁺ OT-II Th9 cells among CD45⁺ cells in LN ([1]; LN, replicate 1) was 25.5%, the Frequencies of transferred CD45.1⁺ OT-II Th9 cells among CD45⁺ cells in LN ([1]; LN, replicate 2) was 16.2% and the Frequencies of transferred CD45.1⁺ OT-II Th9 cells among CD45⁺ cells in LN ([1]; LN, replicate 3) was 15.5%. For the same substance, the Frequencies of transferred CD45.1⁺ OT-II Th9 cells among CD45⁺ cells in LN ([1]; LN, replicate 4) was 16.6%, the “number of transferred CD45.1⁺ OT-II Th9 cells among CD45⁺ cells in LN” value (shortened to “number … in LN”) ([1]; LN, replicate 1) was 12444.4 and the “number … in LN” value ([1]; LN, replicate 2) was 12569.8. For the same substance, the “number … in LN” value ([1]; LN, replicate 3) was 11818.2, the “number … in LN” value ([1]; LN, replicate 4) was 11251.4 and the CD45.1+ gate number ([1]; LN, Figure S1D) was 15.5%. The CD45.1+ gate number ([1]; Spleen, Figure S1C) was 11.7%, the CD45.1+ gate number ([1]; Tumor, Figure S1E) was 6.7% and the “expansion of transferred cells” value ([1]; lymph nodes, result in words) was “moderately in the lymph nodes”. The “expansion of transferred cells” value ([1]; spleen, result in words) was “expanded robustly in the spleen”, the “Total CD45.1(%) among CD45+ cells” value [1, 5] was 11.1% and 9.13% and 7.88% and 11.8% and the “number of CD45.1+ T cells” value [1, 5] was 854404 and 834158 and 848241 and 1565169. For the same substance, the “CD45.1 (%) among CD4+ cells” value ([1]; tumors, individual mice, n = 4) was 6.68% and 1.49% and 0.81% and 0.8%, the “number of CD45.1+ OT-II Th9 cells” value ([1]; tumors, individual mice, n = 4) was 16 and 22 and 24 and 15 and the “absolute number of transferred cells” value ([1]; tumors, result in words) was “markedly increased”. The “frequency of transferred cells” value ([1]; tumors, result in words) was “remained comparable”, the “OCR, basal and maximal respiration” value (Th9 cells [2]; EpA 10 μM, 4 days, result in words) was “higher basal and maximal respiration” and the “Basal Oxygen Consumption Rate” value (Th9 cells [2]; Figure 4G, individual replicates, (n = 5), in pmol/min (unit assumed)) was 169.53 and 169.91 and 173.53 and 152.33 and 158.62. The “Max Oxygen Consumption Rate” value (Th9 cells [2]; Figure 4H, individual replicates, (n = 5), in pmol/min (unit assumed)) was 295.4 and 261.85 and 290.65 and 188.88 and 233.85, the Number of mitochonodrion/cell ([3]; Figure 4J, individual cells) was 12 and 23 and 11 and 16 and 10 and 21 and 9 and 17 and 6 and 7 and 24 and the “number and diameter of mitochondria” value ([3]; result in words) was “increased number and diameter of mitochondria”. For the same substance, the “intracellular ATP levels” value (Th9 cells [4]) was “significantly elevated”.

From article PMC12867150, “A fungi-derived cyclic peptide enhances Th9-mediated antitumor immunity by targeting ZAP70 and SREBP1” (The Journal of Clinical Investigation, 2025)
